Experimental data: patent US20220249376A1, “NANOVESICLES AND ITS USE FOR NUCLEIC ACID DELIVERY” (FUNDACIÓ HOSPITAL UNIVERSITARI VALL D'HEBRON - INSTITUT DE …, priority 2019, published 2022)

System: miR-323a-5p
Assay: miR-323a-5p expression levels by qPCR after transfection
Format: cell-based
Settings: SK-N-BE(2), miRNA 50 nM
Protocol: For in vitro experiments, SK-N-BE(2) neuroblastoma cells were reverse transfected with the addition of the QS-sRNA complexes to complete cell culture medium (IMDM, 10% heat-inactivated foetal bovine serum (FBS) South America Premium (Biowest, Nuaillé, France)) without antibiotics. After overnight (o/n) incubation media was changed for IMDM supplemented with 10% FBS and antibiotics.
Total RNA including small RNAs was extracted using the miRNeasy Mini Kit (Qiagen, Las Matas, Spain). mRNAs were reverse transcribed (0.5 μg total RNA) using Taqman RT kit (#4366596; Applied Biosystems, Thermo Fisher Scientific), and mature miRNA expression analysis was quantified using Taqman microRNA assays (#4440047; Applied Biosystems, Thermo Fisher Scientific) following manufacturer's recommendations. cDNA was quantified by standard RT-qPCR methodology using 2× Power SYBR Green Master Mix (Applied Biosystems, Thermo Fisher Scientific) using the ABI700SDS equipment. […] The relative fold-change Relative quantification of gene expression was performed with a comparative 2^(−ΔΔCT) method (Livak K J, Schmittgen T D. Analysis of relative gene expression data using real-time quantitative PCR and the 2(−Delta Delta C(T)) method. Methods 2001; 25: 402-408).
The RNU44 is as a housekeeping gene, commonly used to normalize the smallRNA content in the analyzed samples. […]

## miRNA naked: miRIDIAN hsa-miR-323a-5p mimic AGGUGGUCCGUGGCGCGUUCGC (SEQ ID NO: 1), not complexed (listed as RNA, chemistry not given here)
  miR-323a-5p expression levels: could not increase
